Patent US9878021B2, “Compositions and methods for treatment of retinal degenerative diseases” (MOR RESEARCH APPLICATIONS LTD., priority 2013, dated 2018)

Key:
Format in all cases: cell-based
[1] = test system: p53, phospho-p38 in RPE cells; experiment: Western blot analysis of p53 and phospho-p38
Protocol: Western blot analysis was performed by standard protocols (11), p53, p38, phospho-p38, GADPH, and TAK1; antibodies were obtained from Enco, Israel.

RPE cells (ARPE-19) [2] = experiment: Double-staining (annexin and propidium iodide) FACS assay of RPE cells; conditions: TAK1 inhibitor 1 μM 1 hour prior to H2O2 200 μM; untreated 1.25%, H2O2 alone 31%
Protocol: (§1) Double-staining (annexin and propidium iodide (PI)) assay of RPE cells. RPE cells (ARPE-19, available from ATCC) were treated for one hour with the TAK1 inhibitor {5Z-7-oxozeaenol (1 μM)}, following 200 μM H2O2 for one hour or left untreated. The cells were then washed with fresh medium and after 24 hours were trypsinized, stained, and analyzed by FACS. The percentage of cells in each cell-cycle phase (G1/G0, S, and G2/M) was determined by its DNA content (FL2A).

ARPE-19 cells = experiment: Cell viability / proliferation XTT assay
Protocol: Cell viability assays ARPE-19 cells were seeded in 96-well plates (5000 cells/well) in full medium and were pretreated with the TAK1 inhibitor 5Z-7-oxozeaenol (1 μM) or left untreated for 1 hour. Their viability was then assayed by the XTT assay (cell proliferation kit cat #20-300-1000; Beit Haemek, Israel).
(§2) To determine possible toxicity of anisomycin to RPE cells, RPE cells were treated with anisomycin at different concentration for 5 minute periods. Following treatment, the medium was replaced and fresh medium was added. 72 hours post-treatment, the cells were photographed. […] Their viability was then assayed by the XTT assay.

RPE cells (ARPE-19) [3] = experiment: FACS cell-cycle analysis by DNA content (FL2A)
Protocol: as §1

RPE cells [4] = experiment: SA-β-gal (senescence marker) staining
RPE cells [5] = experiment: Conditioned media (SASP) applied on fresh RPE cells, morphology; conditions: applied 72 hours
Protocol: The most significant effect of senescence, is the acquisition of a senescence-associated secretory phenotype (SASP). SASP can convert senescent cells to proinflammatory cells that promote the secretion of chemokines and cytokines that can affect the microenvironment, including in the human retina (16, 17). To examine the role of TAK1 in this process, RPE cells were treated with TAK1 inhibitor or with H2O2, alone or in combination. After 2 weeks, the media was collected from the three separate treatments, centrifuged and the supernatants (conditioned media) were applied on fresh RPE cells for 72 hours.

RPE cells [6] = experiment: RPE cell size quantification (hypertrophy); conditions: TAK1 inhibition combined with oxidative stress, compared to stressed and normal cells
Protocol: N=40 cells for each treatment.
One of the hallmarks of RPE senescence is cellular hypertrophy. RPE cell size is approximately […]; but upon oxidative stress or genetic mutation RPE cells can undergo enlargement.

RPE cells [7] = experiment: Anisomycin toxicity to RPE cells, cellular morphology; conditions: different concentrations for 5 minute periods, 72 hours post-treatment; low levels
Protocol: as §2

Structure (SMILES)	p38 phosphorylation ([1]; RPE cells under oxidative stress, pretreated with TAK1 inhibitor 1 μM)	p53 expression levels over a longer period ([1]; TAK1 inhibition, days, compared to untreated cells)	time at which p53 expression peaked ([1]; pretreated cells under oxidative stress, control cells peak after 60 min)	number of apoptotic cells expressed as a percentage of the total number (RPE cells (ARPE-19) [2])	proliferation rate (optical density) (ARPE-19 cells; 1 μM pretreatment 1 hour, untreated cells peak on day 4)	G2/M arrest under oxidative stress (RPE cells (ARPE-19) [3]; TAK1 inhibition prior to H2O2 treatment)	percentage of cells at the G0/G1 stage (RPE cells (ARPE-19) [3]; following TAK1 inhibition, of the total number)	number of cells expressing SA-β-gal (RPE cells [4]; TAK1 inhibitor alone, relative to untreated cells)	SA-β-gal expression (RPE cells [4]; pretreatment with TAK1 inhibitor then oxidative stress (H2O2), days 13 and 16)	phenotype of fresh RPE cells receiving conditioned medium (RPE cells [5]; medium from cells treated with TAK1 inhibitor alone, 2 weeks)	phenotype of fresh RPE cells receiving conditioned medium (RPE cells [5]; medium from cells treated with both TAK1 inhibitor and H2O2, 2 weeks)	cell size (RPE cells [6])	rate of cell proliferation (ARPE-19 cells; oxidative stress and anisomycin)	toxicity to RPE cells (cellular morphology vs control) (RPE cells [7])	number of SA-β-Gal positive cells (RPE cells [4]; H2O2 1 hour, 10 days growth, anisomycin 10 ng/ml 5 min, five more days, vs untreated cells exposed to oxidative stress)
COc1cc(O)c2c(c1)/C=C/C[C@H](O)[C@H](O)C(=O)/C=C\C[C@H](C)OC2=O [5Z-7-oxozeaenol]	inhibition of p38 phosphorylation	reduced p53 expression levels slightly more than the untreated cells	10 min	24%	slower proliferation rate that began to decrease after 3 days	reduced	89%	dramatically increased	strongly increased	hypertrophic phenotype similar to that of senescent cells	aberrant morphology similar to that of atrophic RPE cells	further increases cell size	–	–	–
COc1ccc(C[C@H]2NC[C@H](O)[C@H]2OC(C)=O)cc1 [anisomycin, (2R,3S,4S)-4-hydroxy-2-(4-methoxybenzyl)-pyrrolidin-3-yl acetate]	–	–	–	–	–	–	–	–	–	–	–	–	did not display reduction	not toxic	reduces the number of SA-β-Gal positive cells
